Drawing on PubChem BioAssay (NCI), this text covers GI50 and TGI for 26 compounds.

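Method: 48-hour compound exposure of cells in 96-well plates, five concentrations, linear interpolation of endpoints. The concentration for 50% growth inhibition is given as GI50. At the TGI there is no net growth.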

What all share (assay): NCI anticancer screen, dose series, 48 h
Assay [1] has as its system A549 NSCLC.
Assay [2] concerns BT-549 breast.
Assay [3] relates to K-562 leukemia.
Assay [4] concerns MCF7 breast.
Assay [5] concerns NCI-H522 lung.
Assay [6] concerns SN12C renal.
The test system of assay [7] is SNB-19 CNS.
The test system of assay [8] is TK-10 renal.
Assay [9] has as its system HS 578T breast.
For assay [10], the system named is MDA-MB-231 breast.

In the case of `COc1ccc(-c2ccc(/C=N/n3c(C)nn(CN4CCN(C)CC4)c3=S)o2)c([N+](=O)[O-])c1`, the GI50 was 60.8 µM in [1]; above 100 µM in assay [2]; 16.2 µM in assay [3]; 30.4 µM in [4]; 65 µM in assay [5]; above 100 µM in [6]. In addition, the GI50 in assay [7] is 58.3 µM; in [8] it was 24.3 µM. Further, the TGI in [1] is above 100 µM; in assay [2] it was above 100 µM; in assay [3], 42.4 µM; in assay [4], above 100 µM; in [5] it was above 100 µM; in [6], above 100 µM. The TGI is above 100 µM in assay [7] and 74.7 µM in assay [8].

On to `CCC(C(=O)[O-])C(=O)[O-].CCC(C(=O)[O-])C(=O)[O-].N.N.NCCCCCCN.[Pt+4].[Pt+4]`, for which the GI50 is 10.8 µM in assay [1]; 1.79 µM in [3]; 8.66 µM in assay [6]; 10.3 µM in assay [7]; 8.23 µM in [8]. For the same compound, the TGI was found to be 24.1 µM in [1]; 10.3 µM in [3]; 17.1 µM in assay [6]; 21.9 µM in assay [7]; 15.1 µM in assay [8].

Regarding `Cc1ccc(C)c(NC(=O)CCc2nc(=S)[nH][nH]2)c1`, the TGI in assay [1], in assay [3], in [5], in assay [6], in assay [7] and in assay [8] was above 100 µM throughout.

For `O=C(O)Cn1c(=O)[nH]c(=O)c2c1ncn2Cc1ccccc1`, the TGI in assay [1], in [3], in [5], in assay [6], in [7] and in [8] was above 100 µM in each case.

On to `CC(C)(C)C(=O)O[C@@H]1COC2C(O)COC21` (some centres undefined), for which the TGI in [1], in assay [3], in assay [5], in [6], in assay [7] and in [8] was above 100 µM in each case.

As for `CN(C)c1ccc(/C=N\N2C(=O)c3ccccc3C2=O)cc1`, the TGI in [1], in assay [3], in assay [6], in assay [7] and in assay [8] was above 100 µM in each case.

On to `CC(=O)[O-].O=C([CH-]C(=O)c1ccccc1)c1ccccc1.O=C([CH-]C(=O)c1ccccc1)c1ccccc1.[Y+3]`, for which the GI50 in assay [1] is 10.3 µM; in [3], 3.45 µM; in assay [5] it was 1.58 µM; in [6], 6.23 µM; in assay [7], 6.17 µM; in assay [8] it was 8.27 µM. Besides, the TGI in [1] was 34.3 µM; in assay [3], above 100 µM; in assay [5], 6.06 µM; in assay [6], 38 µM; in assay [7], 64.7 µM; in [8], 66.5 µM.

Turning to `N#CC1(C=O)c2ccccc2C=CN1C(=O)c1ccccc1` (centres undefined), the TGI is above 100 µM in [1]; 91.6 µM in assay [3]; above 100 µM in assay [5]; above 100 µM in assay [6]; above 100 µM in [7]; above 100 µM in [8].

In the case of `COCCOCC(=O)N(CCn1ccc(NC(c2ccccc2)(c2ccccc2)c2ccccc2)nc1=O)CCn1cnc2nc(N)[nH]c(=O)c21`, the TGI in assay [1], in [3], in assay [6] and in assay [8] was above 100 µM throughout.

With `Cc1nc(Nc2ccc([N+](=O)[O-])cc2)sc1C(/C=C/c1ccc(N(C)C)cc1)=N/NC(=O)c1ccccc1`, the TGI in assay [1], in assay [3], in assay [5], in assay [6], in assay [7] and in assay [8] was above 100 µM each time.

For the compound `O=C(NNC(=O)c1cc(/C=C/c2cccc([N+](=O)[O-])c2)[nH]c(=S)n1)Nc1ccc(Cl)cc1`, the TGI in assay [1] was above 100 µM; in [3] it was above 100 µM; in assay [5] it was 81.8 µM; in assay [6] it was above 100 µM; in assay [8], above 100 µM.

Take `O=C1C2c3[nH]c4ccccc4c3[C@@H]3CCCCC3C2C(=O)N1c1ccccc1` (some centres undefined): the TGI in assay [1] is above 100 µM; in assay [3], above 100 µM; in assay [6], 32.4 µM; in assay [7] it was above 100 µM; in assay [8] it was 68.7 µM.

In the case of `CCOC(=O)c1cc2c(n1Cc1ccccc1)-c1oncc1CC2`, the GI50 is 4.93 µM in assay [1]; 2.75 µM in assay [9]; 2.48 µM in [3]; above 100 µM in [4]; 5.66 µM in assay [10]; 1.96 µM in [5]. The GI50 was 10 µM in assay [6], 7 µM in [7] and 14.4 µM in [8]. For the same compound, the TGI in [1] was above 100 µM; in assay [9], 17.5 µM; in [3], above 100 µM; in assay [4], above 100 µM; in [10], 57.1 µM; in [5], 17.5 µM. The TGI is 55.8 µM in assay [6], above 100 µM in [7] and above 100 µM in assay [8].

Take `COC(OC)[C@@H](C)[C@H](O)[C@](C)(O)C1OC(C)(C)OC(C(C)C=C(C)C)C1C` (some centres undefined): the TGI in assay [1], in assay [3], in [5], in [6], in assay [7] and in assay [8] was above 100 µM throughout.

`c1ccc(COCC2OC3c4ccccc4COC3C2OCc2ccccc2)cc1` (centres undefined): the TGI in assay [1], in [3], in assay [6], in assay [7] and in assay [8] was above 100 µM throughout.

As for `COC12CC(=O)C(C(C)=O)=C(O)C1(C)c1c(OC(C)=O)c(C)c(O)c(C(C)=O)c1O2` (centres undefined), the TGI in [1] is above 100 µM; in assay [3] it was above 100 µM; in [6], 64.7 µM; in [7] it was above 100 µM; in [8], 69.7 µM.

On to `CCCCCCCCCCCCN(O)C(=O)c1ccccc1`, for which the TGI in [1] is above 100 µM; in assay [3] it was above 100 µM; in assay [5] it was above 100 µM; in assay [6] it was 71.4 µM; in assay [7] it was above 100 µM; in assay [8] it was above 100 µM.

For the compound `COc1ccc(/C(=N/NC(N)=O)C(c2ccc(OC)cc2)C2C(=O)Oc3ccccc32)cc1` (centres undefined), the TGI in assay [1], in assay [3], in assay [5], in [6] and in assay [7] was above 100 µM in each case.

Take `CCOC(=O)NC(=O)c1cn(CCN2CCN(C(=O)CCCCCCCCCCNc3ncnc4nc[nH]c34)CC2)c(=O)[nH]c1=O`: the TGI in assay [1], in assay [3], in assay [6], in assay [7] and in assay [8] was above 100 µM each time.

For the compound `COc1cc(-c2cc(=O)c3cc(C)c(C)c(C(=O)O)c3o2)cc(OC)c1OC`, the TGI in [1], in assay [3], in assay [5], in [6], in assay [7] and in assay [8] was above 100 µM in each case.

`Cn1c2c(c3ccccc31)CCN(CCCCN1CCN(c3cccc(Cl)c3)CC1)C2=O`: the TGI was found to be 70.2 µM in [1]; 27.6 µM in [3]; 25.6 µM in [5]; 25.8 µM in assay [6]; 42.8 µM in assay [7]; 25.1 µM in assay [8].

For `O=C(CC(=O)C1CCOC1=O)C(=O)Nc1ccc(Cl)cc1Cl` (centres undefined), the TGI in assay [1], in [3], in assay [5], in [6], in [7] and in assay [8] was above 100 µM in each case.

For `CC1=C(c2cc(C(=O)Nc3cccc(C(F)(F)F)c3)ncn2)Sc2ccccc2N1`, the TGI in assay [1], in [3], in assay [5], in assay [6], in [7] and in assay [8] was above 100 µM each time.

Turning to `COc1ccc(CNc2nc3c(NC(C)=O)cc(C(F)(F)F)cc3nc2-c2ccccc2)cc1OC`, the TGI was above 100 µM in assay [1]; above 100 µM in [3]; 23.5 µM in [5]; above 100 µM in assay [6]; above 100 µM in assay [7]; above 100 µM in assay [8].

For the compound `CN(C)c1n/c(=N/c2ncn[nH]2)ss1`, the TGI in [1], in assay [3], in [5], in assay [6], in assay [7] and in assay [8] was above 100 µM throughout.

Regarding `O=C(NO)C(=O)Nc1ccc(Cl)cc1[N+](=O)[O-]`, the TGI in [1], in [3], in [5], in assay [6], in assay [7] and in assay [8] was above 100 µM each time.
